{
  "source": "patent US8017350B2",
  "about": "“Glimepiride- and insulin-induced glycosylphosphatidylinositol-specific phospholipase C regulation” (Sanofi-Aventis Deutschland GmbH, priority 2004, dated 2011)",
  "key": {"rat serum GPI-PLD": {"target": "T1, rat serum GPI-PLD (Rattus norvegicus, UniProt Q8R2H5)", "T1 construct": "GPI-PLD (rat serum) was assayed according to; from tissue; host or cells: rat serum", "T1 sequence (Q8R2H5 24-843)": "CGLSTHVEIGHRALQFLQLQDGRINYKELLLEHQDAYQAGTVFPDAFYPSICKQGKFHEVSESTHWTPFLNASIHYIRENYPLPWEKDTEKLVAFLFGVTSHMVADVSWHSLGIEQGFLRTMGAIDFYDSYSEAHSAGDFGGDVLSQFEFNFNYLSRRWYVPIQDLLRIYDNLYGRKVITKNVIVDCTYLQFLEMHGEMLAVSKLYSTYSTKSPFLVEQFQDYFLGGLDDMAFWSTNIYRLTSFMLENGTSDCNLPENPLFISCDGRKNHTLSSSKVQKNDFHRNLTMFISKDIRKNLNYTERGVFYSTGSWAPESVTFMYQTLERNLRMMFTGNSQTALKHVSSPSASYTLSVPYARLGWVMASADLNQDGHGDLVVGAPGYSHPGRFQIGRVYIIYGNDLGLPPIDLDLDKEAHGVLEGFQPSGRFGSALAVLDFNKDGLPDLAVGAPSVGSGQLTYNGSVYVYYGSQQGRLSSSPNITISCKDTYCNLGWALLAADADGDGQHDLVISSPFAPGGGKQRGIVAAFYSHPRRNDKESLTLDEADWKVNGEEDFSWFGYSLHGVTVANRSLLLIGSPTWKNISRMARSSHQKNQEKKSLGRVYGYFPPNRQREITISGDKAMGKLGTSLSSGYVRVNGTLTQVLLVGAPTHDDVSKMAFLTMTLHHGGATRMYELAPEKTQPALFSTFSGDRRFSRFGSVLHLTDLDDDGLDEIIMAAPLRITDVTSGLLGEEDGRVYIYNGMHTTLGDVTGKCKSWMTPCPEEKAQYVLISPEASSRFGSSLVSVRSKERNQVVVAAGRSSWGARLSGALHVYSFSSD", "test": "GPI-PLD (rat serum) assay, human placental aP substrate", "assay_type": "biochemical", "settings": "FIG. 2; read-out: apparent IC50", "procedure": "GPI-PLD (rat serum) was assayed according to “Hari et al. (1997) Biochim. Biophys. Acta 1355: 293-302” by incubation with 10 μl of human placental aP solution (100 U/ml in 10 mM Hepes/NaOH, pH 7.0, 150 mM NaCl) in 100 μl of 200 mM Tris/maleate (pH 7.0) and 1% Nonidet P-40 for 10 min at 37° C. and subsequent termination of the reaction by addition of 0.4 ml of ice-cold stop buffer (10 mM Hepes/NaOH, pH 7.0, 150 mM NaCl, 0.1 mM MgCl2 and 0.01 mM zinc acetate). GPI-PLC (T. brucei) was assayed as described in “Mensa-Wilmot et al. (1995) Methods Enzymol. […]\nPelleted hc/lcDIGs (10-50 μg protein) or (G)PI-PLC reaction mixtures (0.5 ml) were separated into amphiphilic and hydrophilic proteins using partitioning between TX-114-enriched and depleted phases according to “Bordier, C., (1981) J. Biol, Chem. […]” by suspending in 1 ml of ice-cold TX-114 (1%), 25 mM Tris/HCl (pH 7.4), 144 mM NaCl or mixing with 0.5 ml of ice-cold TX-114 (2%), respectively. […] After re-extraction of the lower TX-114-enriched phase, aliquots of the pooled upper TX-114-depleted phase were measured for 5′-Nuc, aP and AChE activity or precipitated (15 polyethylene glycol 4000) for SDS-PAGE analysis.\nFIG. 2: Potency of GPI-2350. […] The lipolytic activity was calculated as % of the control reaction in the absence of GPI-2350 (set at 100%). […]"}, "isolated rat adipocytes": {"system": "isolated rat adipocytes", "test": "glucose transport assay (2-deoxy-D-[3H]glucose)", "assay_type": "cell-based", "settings": "50 μM", "procedure": "Glucose transport was determined as described in “Müller, G. et al., (1994) J. Cell Biol. 126: 1267-1276” by incubation of 10,000-20,000 washed adipocytes with 2-deoxy-D[2,6-^3H]glucose at 50 μM final conc. (0.33 μCi/ml) in 50-μl portions for 20 min at 37° C. in the absence or presence of 20 μM cytochalasin B.\nTable 3: Isolated rat adipocytes were incubated in the presence of methyl-β-cyclodextrin (m-β-CD, 10 mM, 50 min), CBDP (300 μM, electroporation, followed by washing and subsequent incubation for 30 min), PIG41 (10 μM, 15 min), sodium orthovanadate (1 mM, 15 min), trypsin (10 μg/ml, 15 min followed by treatment with 0.5 M NaCl and subsequent washing) and N-ethylmaleimide (1 mM, 5 min followed by addition of DTT). After addition of GPI-2350 (50 μM final conc.) to one half of the adipocyte suspension and further incubation (60 min, 37° C.), portions of the cells were assayed for 5′-Nuc activity in the isolated IcDIGs. The increase in 5′-Nuc during the basal incubation was set at 100 arb. units. Other portions of the cells (after 15 min incubation) were assayed for glucose transport which was set at 100 arb. units for the basal incubation. Means+SD of at least 3 independent cell incubations with activity measurements in triplicate each are given.\nFIG. 8: Effect of GPI-2350 on the glimepiride/insulin-induced metabolic activity. Isolated rat adipocytes were treated (5 min, 37° C.) without or with GPI-2350 (Panel A, 50 μM; Panel B, increasing conc.; Panel C, 5 μM, 50 μM) and then incubated (15 min, 37° C.) in the absence or presence of insulin (Ins, 10 nM) or glimepiride (Gli, 20 μM or increasing conc.) as indicated. The adipocytes were then assayed for glucose transport and isoproterenol-induced lipolysis. The activity is given relative to the absence of GPI-2350 in the control reaction (Panels A, basal) or in the insulin- and glimepiride-stimulated state (Panels B and C, set at 100). Means+SD of at least 5 independent cell incubations with activity measurements in triplicate each are given."}},
  "data": [
    {"smiles": "CCCCCCCCCCCCP1(=O)O[C@@H]2[C@H](O)[C@@H](O)[C@H](O)[C@@H](O)[C@@H]2O1", "note": "(some centres unmarked) [GPI-2350, myo-inositol-1,2-cyclo-dodecylphosphonic acid]", "values": [
      {"measurement": "IC50", "setting": "rat serum GPI-PLD", "value": 1000, "unit": "nM"},
      {"measurement": "effect on stimulation of glucose transport in response to glimepiride", "setting": "isolated rat adipocytes", "value": "almost complete blockade"}
    ]}
  ]
}
